Source: patent publication US11773096B2, “Small-molecule PI5P4K alpha/beta inhibitors and methods of treatment using same” (YALE UNIVERSITY, priority 2018, dated 2023)
pKi: −log10 of the molar value.

Experiments:
TNIK = TNIK (Homo sapiens, UniProt Q9UKE5); assay: HotSpot protein kinase panel; conditions: read-out: TNIK activity remaining
Description: (§2) In both titrations, the ATP concentration was fixed at 50 μM. The assay kits for Plk1 and RSK2 were obtained from Promega (Madison, Wis.), which use ADP-Glo™ for activity detection.

BT474 cells [1] = assay: Proliferation (CellTiter-Glo); type: cell-based
Description: To measure cell number using the CellTiter-Glo 2.0 assay kit (Promega), cultured cells were equilibrated to room temperature for 30 min, and an equal volume of the CellTiter-Glo reagent was added and mixed for 2 min on an orbital shaker. The plates were incubated for another 10 min before luminescence was recorded using a SpectraMax M5 plate reader. To assess the effect of compound on growth, cells were plated onto white solid-bottom 96-well plates (coming 3917) at 2,000 cells per well in sextuplicate. After 24 hrs, compound (or DMSO control) was added to the wells, and cell number was determined after culturing for 0, 24, 48, and 72 hrs.

myotubes = assay: Glucose consumption and lactate production in myotube culture media; type: cell-based
Description: (§1) To measure glucose consumption and lactate production, a total of 1×10^5 cells were seeded into each well of a 12-well plate and cultured in the presence of compound for 48 hrs. The culture media were collected and deproteinized by centrifugation using an Amicon Ultra centrifugal filter (3 kDa cut-off), while cells were lysed and used for protein concentration determination by BCA assay. The media were assayed immediately for glucose and lactate levels using colorimetric assay kits from BioVision following the manufacturer's protocols. The values were normalized against protein concentration. All measurements were made in triplicate.

AMPK = assay: Western blot of ACC phosphorylation by AMPK in myotubes (FIG. 3F); type: cell-based
Description: After wash with cold DPBS buffer, cells were lysed in RIPA buffer that contained 50 mM Tris-HCl pH 8.0, 150 mM NaCl, 1 mM EDTA, 1 mM EGTA, 1% NP-40, 0.5% sodium deoxycholate, 0.1% SDS, and protease and phosphatase inhibitor cocktails (Roche). Total protein concentrations were measured using a BCA assay (Thermo scientific). Cell lysate (about 80 μg protein) was resolved by SDS-PAGE and blotted onto PVDF membranes. The membranes were probed overnight at 4° C. with appropriate primary antibodies (Cell Signaling Technology) and incubated with secondary fluorescent antibodies (LI-COR Biosciences) for 1 hr at room temperature before imaging by an Odyssey CLx system.

MCF10A p53(−/−) cells = assay: Cell death upon serum withdrawal, trypan blue staining; type: cell-based
Description: However, the difference is lost when EGF is added to the culture media. […] FIG. 17C: Cell death upon serum withdrawal is measured by trypan blue staining. p53(−/−) Cells are more susceptible to metabolic perturbations caused by glucose starvation.

mTOR/FRAP1 = mTOR/FRAP1 (Homo sapiens, UniProt P42345); assay: In vitro kinase profiling; type: biochemical
PI3Kγ = PI3Kγ (Homo sapiens, UniProt P48736); assay: Lipid kinase panel (ADP-Glo)
Description: (§3) In both titrations, the ATP concentration was fixed at 50 μM.

RSK2 = RSK2 (Homo sapiens, UniProt P51812); assay: RSK2 kinase assay kit (Promega, ADP-Glo)
Description: (§4) The assay kits for Plk1 and RSK2 were obtained from Promega (Madison, Wis.), which use ADP-Glo™ for activity detection.

[2] = test system: panel of 14 lipid kinases; assay: Lipid kinase panel (ADP-Glo), panel as a whole; conditions: compound 0.5 μM, ATP 10 μM
Description: as §3

PI4P5Kα = PI4P5Kα (Homo sapiens, UniProt Q99755); assay: Lipid kinase assay / panel (ADP-Glo)
Description: as §4

C2Cl2 myotubes = assay: Adenine nucleotides measurement in myotubes (luminescent ATP kit, HPLC, LC-MS/MS); type: cell-based, mouse
Description: C2Cl2 cells were plated and differentiated on the same type of plates. After treatment with compound overnight, total cellular ATP levels were measured by a luminescent ATP detection assay kit (Abcam) following manufacturer's protocol and normalized against the total protein concentration.
To measure nucleotide concentration using HPLC or LC-MS/MS, cells were rinsed three times with DPBS buffer at room temperature and lysed in ice-cold 0.4M perchloric acid (500 μl acid per 10^6 cells). The culture dishes were sealed and transferred to a −80° C. freezer. Cell lysates were then thawed on ice, scraped off, and centrifuged at 14,000 rpm at 4° C. for 10 min. The pellet was solubilized in 0.2M NaOH and set aside for measurement of protein concentration. The supernatant was transferred to clean tubes and neutralized with 3M KHCO3. The neutralized sample was kept on ice for 10 min and then transferred to a −80° C. freezer. After 2 hrs, thawed sample was centrifuged again to remove the precipitated perchlorate, filtered, adjusted according to protein concentration, aliquoted and stored at −80° C. The sample was thawed on ice just before the HPLC or LC-MS/MS experiment. […] The nucleotides were separated using 20 mM ammonium acetate in water (solvent A) and 5% acetonitrile in water buffered with 20 mM ammonium acetate (solvent B), which were both adjusted with ammonium hydroxide to pH 9.0. The flow rate was 0.7 mL/min, and the column temperature was maintained at 35° C. The gradient elution program was: 0-2 min, 0-5% B; 2-12 min, 5-10% B; 12-22 min, 10-20% B; 22-25 min, 20-100% B; 25-30 min, 100% B, and then back to 100% A for 1 min, which was maintained for another 9 min to recondition the column. Mass spectrometric ESI ionization was performed in the negative ion mode and the source parameters were set as follows: gas temperature, 200° C.; gas flow, 12 L/min; nebulizer pressure, 35 psi; sheath gas temperature, 200° C.; sheath gas flow, 12 L/min; capillary voltage, −4,000V; fragmentor voltage, 380V.

c-MER = c-MER (Homo sapiens, UniProt Q12866); assay: HotSpot protein kinase panel; conditions: read-out: c-MER activity remaining
NEK1 = NEK1 (Homo sapiens, UniProt Q96PY6); assay: HotSpot protein kinase panel; conditions: read-out: NEK1 activity remaining
Plk1 = Plk1 (Homo sapiens, UniProt P53350); assay: Plk1 kinase assay kit (Promega, ADP-Glo); conditions: ATP 50 μM
Description: as §2

PI3Kδ = PI3Kδ (Homo sapiens, UniProt O00329); assay: Lipid kinase panel (ADP-Glo)
Description: as §3

BT474 cells [3] = assay: Glucose consumption and lactate secretion in BT474 cells; type: cell-based
Description: as §1

PI4P5Kα, sequence (Q99755 whole entry): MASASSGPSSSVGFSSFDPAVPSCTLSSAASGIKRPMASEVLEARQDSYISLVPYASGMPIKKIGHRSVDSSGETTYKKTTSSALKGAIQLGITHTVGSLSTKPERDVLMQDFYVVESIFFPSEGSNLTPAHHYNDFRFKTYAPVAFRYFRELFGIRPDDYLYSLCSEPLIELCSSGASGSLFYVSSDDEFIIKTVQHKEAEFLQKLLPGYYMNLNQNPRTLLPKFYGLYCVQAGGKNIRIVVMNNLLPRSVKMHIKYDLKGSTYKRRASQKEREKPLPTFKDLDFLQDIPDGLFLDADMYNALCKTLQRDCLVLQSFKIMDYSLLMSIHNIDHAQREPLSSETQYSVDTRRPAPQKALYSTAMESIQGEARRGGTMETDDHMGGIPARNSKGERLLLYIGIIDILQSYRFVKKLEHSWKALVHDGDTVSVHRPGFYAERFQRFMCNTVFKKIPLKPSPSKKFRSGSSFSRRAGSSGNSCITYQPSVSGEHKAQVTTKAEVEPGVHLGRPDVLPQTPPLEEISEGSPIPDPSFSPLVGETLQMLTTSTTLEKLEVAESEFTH
RSK2, sequence (P51812 whole entry): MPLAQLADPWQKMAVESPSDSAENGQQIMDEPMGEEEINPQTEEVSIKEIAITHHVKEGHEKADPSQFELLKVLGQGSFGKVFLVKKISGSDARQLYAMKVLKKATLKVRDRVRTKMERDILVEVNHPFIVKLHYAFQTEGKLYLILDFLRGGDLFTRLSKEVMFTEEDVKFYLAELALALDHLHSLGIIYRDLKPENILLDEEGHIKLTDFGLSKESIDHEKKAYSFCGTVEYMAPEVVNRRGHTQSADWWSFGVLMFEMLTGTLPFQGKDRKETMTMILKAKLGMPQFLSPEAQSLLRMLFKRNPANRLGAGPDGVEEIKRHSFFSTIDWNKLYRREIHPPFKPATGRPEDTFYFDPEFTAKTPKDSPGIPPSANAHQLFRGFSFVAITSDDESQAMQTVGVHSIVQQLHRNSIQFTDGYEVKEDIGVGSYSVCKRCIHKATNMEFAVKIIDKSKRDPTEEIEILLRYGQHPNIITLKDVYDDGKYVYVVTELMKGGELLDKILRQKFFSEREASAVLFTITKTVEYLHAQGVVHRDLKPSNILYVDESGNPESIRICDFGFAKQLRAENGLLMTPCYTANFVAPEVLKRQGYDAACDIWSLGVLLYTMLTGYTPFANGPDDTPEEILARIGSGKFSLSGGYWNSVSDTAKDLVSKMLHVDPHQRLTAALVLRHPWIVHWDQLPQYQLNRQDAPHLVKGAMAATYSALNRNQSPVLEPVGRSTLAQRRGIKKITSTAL
TNIK, sequence (Q9UKE5 whole entry): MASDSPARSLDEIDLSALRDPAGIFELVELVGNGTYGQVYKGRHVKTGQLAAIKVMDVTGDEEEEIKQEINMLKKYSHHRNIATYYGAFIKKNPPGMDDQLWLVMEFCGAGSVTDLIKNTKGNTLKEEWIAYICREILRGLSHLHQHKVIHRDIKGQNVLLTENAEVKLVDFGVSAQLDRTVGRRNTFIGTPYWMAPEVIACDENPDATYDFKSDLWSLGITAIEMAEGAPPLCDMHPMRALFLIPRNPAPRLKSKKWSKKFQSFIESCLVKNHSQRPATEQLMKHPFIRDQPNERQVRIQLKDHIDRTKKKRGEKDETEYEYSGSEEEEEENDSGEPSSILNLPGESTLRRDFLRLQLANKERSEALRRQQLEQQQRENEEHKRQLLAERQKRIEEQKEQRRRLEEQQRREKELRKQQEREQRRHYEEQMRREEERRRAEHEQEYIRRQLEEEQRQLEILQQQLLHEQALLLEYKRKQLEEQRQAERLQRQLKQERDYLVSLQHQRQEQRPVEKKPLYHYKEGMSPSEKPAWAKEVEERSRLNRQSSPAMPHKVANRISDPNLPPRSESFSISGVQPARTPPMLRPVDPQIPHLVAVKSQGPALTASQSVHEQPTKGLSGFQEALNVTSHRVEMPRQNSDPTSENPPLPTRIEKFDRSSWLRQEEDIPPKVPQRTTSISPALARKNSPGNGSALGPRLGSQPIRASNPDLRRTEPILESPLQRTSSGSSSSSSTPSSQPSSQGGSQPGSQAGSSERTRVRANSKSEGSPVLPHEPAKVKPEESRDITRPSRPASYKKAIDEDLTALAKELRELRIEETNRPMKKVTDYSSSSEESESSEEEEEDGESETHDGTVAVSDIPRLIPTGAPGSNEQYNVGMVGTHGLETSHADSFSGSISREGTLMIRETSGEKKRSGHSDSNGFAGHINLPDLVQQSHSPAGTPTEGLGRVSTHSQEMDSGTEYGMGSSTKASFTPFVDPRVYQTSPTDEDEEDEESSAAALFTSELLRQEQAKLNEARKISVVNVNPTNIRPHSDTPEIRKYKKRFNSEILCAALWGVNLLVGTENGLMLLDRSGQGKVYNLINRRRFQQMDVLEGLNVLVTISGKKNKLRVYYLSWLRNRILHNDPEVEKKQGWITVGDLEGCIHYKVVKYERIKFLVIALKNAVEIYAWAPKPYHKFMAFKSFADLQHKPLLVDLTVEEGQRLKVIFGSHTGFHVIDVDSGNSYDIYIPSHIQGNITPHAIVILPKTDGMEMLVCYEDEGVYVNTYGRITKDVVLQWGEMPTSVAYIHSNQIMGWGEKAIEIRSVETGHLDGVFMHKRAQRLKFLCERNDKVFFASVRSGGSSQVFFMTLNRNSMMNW
PI3Kδ, sequence (O00329 whole entry, species assumed): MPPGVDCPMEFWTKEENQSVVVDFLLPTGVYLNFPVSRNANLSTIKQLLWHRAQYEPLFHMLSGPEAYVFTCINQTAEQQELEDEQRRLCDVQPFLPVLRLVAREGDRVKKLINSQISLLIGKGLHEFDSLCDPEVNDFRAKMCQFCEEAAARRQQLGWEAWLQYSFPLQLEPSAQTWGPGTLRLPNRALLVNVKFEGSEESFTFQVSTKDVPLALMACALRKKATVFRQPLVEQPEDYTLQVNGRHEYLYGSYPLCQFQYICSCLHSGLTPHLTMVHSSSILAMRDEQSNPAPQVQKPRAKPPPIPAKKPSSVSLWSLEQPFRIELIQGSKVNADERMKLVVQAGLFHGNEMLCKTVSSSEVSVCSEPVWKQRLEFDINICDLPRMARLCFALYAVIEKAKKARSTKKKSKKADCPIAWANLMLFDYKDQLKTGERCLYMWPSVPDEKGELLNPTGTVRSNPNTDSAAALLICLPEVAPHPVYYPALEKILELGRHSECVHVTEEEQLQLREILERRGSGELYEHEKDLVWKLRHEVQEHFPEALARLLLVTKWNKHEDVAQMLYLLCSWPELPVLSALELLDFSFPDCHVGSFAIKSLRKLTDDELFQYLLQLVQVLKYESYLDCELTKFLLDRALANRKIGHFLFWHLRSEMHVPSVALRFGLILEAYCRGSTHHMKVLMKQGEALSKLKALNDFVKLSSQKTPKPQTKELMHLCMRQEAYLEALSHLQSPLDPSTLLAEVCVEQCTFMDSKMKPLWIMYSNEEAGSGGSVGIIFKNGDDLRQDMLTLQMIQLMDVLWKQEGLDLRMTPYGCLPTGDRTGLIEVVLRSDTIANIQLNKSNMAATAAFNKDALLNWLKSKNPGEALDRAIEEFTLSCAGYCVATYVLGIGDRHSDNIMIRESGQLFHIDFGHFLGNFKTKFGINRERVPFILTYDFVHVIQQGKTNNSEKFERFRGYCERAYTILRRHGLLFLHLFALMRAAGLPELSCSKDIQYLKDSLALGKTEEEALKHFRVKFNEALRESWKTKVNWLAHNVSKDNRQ
PI3Kδ, sequence (P27986 whole entry partner, species assumed): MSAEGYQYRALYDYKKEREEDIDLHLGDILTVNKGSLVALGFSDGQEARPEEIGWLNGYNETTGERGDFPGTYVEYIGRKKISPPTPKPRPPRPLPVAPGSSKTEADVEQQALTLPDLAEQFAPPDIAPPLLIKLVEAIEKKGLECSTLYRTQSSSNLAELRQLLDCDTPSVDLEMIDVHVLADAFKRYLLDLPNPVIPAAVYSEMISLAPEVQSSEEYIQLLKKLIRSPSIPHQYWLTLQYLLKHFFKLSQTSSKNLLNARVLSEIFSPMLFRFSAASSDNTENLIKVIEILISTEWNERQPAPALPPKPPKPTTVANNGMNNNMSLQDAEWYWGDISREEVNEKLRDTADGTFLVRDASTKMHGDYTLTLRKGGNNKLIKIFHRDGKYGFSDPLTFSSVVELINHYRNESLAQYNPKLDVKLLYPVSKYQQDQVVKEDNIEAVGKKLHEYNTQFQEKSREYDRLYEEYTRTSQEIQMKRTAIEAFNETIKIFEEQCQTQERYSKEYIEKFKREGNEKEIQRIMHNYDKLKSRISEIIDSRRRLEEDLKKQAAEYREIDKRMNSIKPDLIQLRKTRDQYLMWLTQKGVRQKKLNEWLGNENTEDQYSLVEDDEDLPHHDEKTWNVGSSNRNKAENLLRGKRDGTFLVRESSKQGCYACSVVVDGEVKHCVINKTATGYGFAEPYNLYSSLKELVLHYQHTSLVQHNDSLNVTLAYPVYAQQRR
Plk1, sequence (P53350 whole entry): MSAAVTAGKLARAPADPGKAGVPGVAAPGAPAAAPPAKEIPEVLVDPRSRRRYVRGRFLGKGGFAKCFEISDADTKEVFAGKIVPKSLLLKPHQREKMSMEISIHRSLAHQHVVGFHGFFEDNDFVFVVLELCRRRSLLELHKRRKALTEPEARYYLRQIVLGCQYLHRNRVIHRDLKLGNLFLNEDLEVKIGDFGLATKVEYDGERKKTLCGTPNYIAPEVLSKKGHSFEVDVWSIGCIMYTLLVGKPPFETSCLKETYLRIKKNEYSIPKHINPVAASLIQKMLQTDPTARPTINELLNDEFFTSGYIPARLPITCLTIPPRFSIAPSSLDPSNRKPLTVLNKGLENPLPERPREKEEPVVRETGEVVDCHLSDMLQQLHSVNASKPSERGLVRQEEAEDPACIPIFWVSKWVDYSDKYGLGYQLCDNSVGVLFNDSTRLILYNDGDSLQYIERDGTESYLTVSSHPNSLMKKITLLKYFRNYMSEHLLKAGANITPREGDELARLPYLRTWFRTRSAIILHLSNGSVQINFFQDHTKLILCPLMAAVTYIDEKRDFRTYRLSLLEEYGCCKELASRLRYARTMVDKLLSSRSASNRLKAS

## CN1C(=O)[C@@H](CC2CCCC2)N(C2CCCC2)c2nc(Nc3cc(Cl)c(O)c(Cl)c3)ncc21 [7a, (R)-8-cyclopentyl-7-(cyclopentylmethyl)-2-((3,5-dichloro-4-hydroxyphenyl)amino)-5-methyl-7,8-dihydropteridin-6(5H)-one]
TNIK
  remaining activity at 0.5 µM: 73%
BT474 cells [1]; 32° C. (restores p53 function)
  sensitivity of BT474 growth to inhibition at 32° C.: less sensitive
BT474 cells [1]; dose-dependent, 37° C.
  growth of BT474 cells: inhibited
myotubes; 48 hours after treatment
  lactate accumulated in the media: 7.7 mM
  reduction of glucose concentration in the media: 10.3 mM
myotubes; after 2 days of cell culture
  increase in glucose consumption: 32%
  increase in lactate secretion: 45%
AMPK
  ACC phosphorylation / AMPK activation: activated
MCF10A p53(−/−) cells
  cell death: selectively kills p53(−/−) cells
mTOR/FRAP1
  inhibition of mTOR/FRAP1 in vitro: did not inhibit
PI3Kγ
  pKi: ~6.70
RSK2
  pKi: ~6.00
RSK2; calculated for 0.5 μM 7a and 20 μM ATP
  calculated RSK2 activity, % of DMSO control: 79%
[2]
  inhibition of other lipid kinases of the panel: did not inhibit most PI3Ks, PI4Ks or sphingosine kinases
PI4P5Kα
  pKi: ~5.30
PI4P5Kα; read-out: PI4P5Kα activity remaining
  remaining activity at 0.5 µM: 95%
C2Cl2 myotubes
  ADP concentration: unchanged
C2Cl2 myotubes; bioluminescence assay or HPLC, compound overnight
  reduction of intracellular ATP level: 15%
C2Cl2 myotubes; triple quadrupole LC-MS/MS
  increase in AMP concentration: 30%
c-MER
  remaining activity at 0.5 µM: 67%
NEK1
  remaining activity at 0.5 µM: 67%
Plk1
  inhibition of Plk1: no longer inhibited
PI3Kδ
  pKi: ~6.92
BT474 cells [3]; absence of serum
  lactate fermentation: slightly increased
BT474 cells [3]; with serum
  metabolic switch induced by serum (glucose consumption, lactate secretion): prevented
